From patent publication US8211646B1, “Methods of treating ovarian cancer by modulating SnoN” (University of South Florida, priority 2008, dated 2012) come the findings set out here.

Assay type in all cases: cell-based
In one assay the test system is SnoN. Kind of assay: Western analysis of SnoN protein levels. Particulars: for concentration at which induction of SnoN occurred: 18 hours. How it is done: (§1) Proteins were resolved on an 8%, 12%, or 15% SDS-PAGE gel (as appropriate) and electrophoretically transferred to polyvinyldifluoride (PVDF) membranes. After blocking with 5% (w/v) milk in TBST (Tris-Buffered Saline containing 0.1% Tween-20) for one hour at room temperature, membranes were incubated with primary antibodies (at appropriate dilution) overnight at 4° C., followed by extensive washing and incubation for 1 hour with the appropriate horseradish peroxidase-conjugated secondary antibodies (BioRad, Hercules, Calif.). Blots were washed extensively. A rabbit polyclonal EVI1 antibody was obtained (1:3000 dilution, St. Jude's Children's Hospital, Memphis, Tenn.). SnoN rabbit polyclonal (1:1000 dilution), PML, and p21 SMURF2 rabbit polyclonal (1:500 dilution), MRP1 mouse monoclonal (1:500 dilution) and GAPDH mouse monoclonal (1:250 dilution) antibodies were obtained from Santa Cruz Biotechnology (Santa Cruz, Calif.). TGFβRII rabbit polyclonal (1:1000 dilution) antibody was obtained from Strategic Diagnostics (Newark, Del.). Smad2/3 rabbit polyclonal (1:1000 dilution), Beclin-1 rabbit polyclonal (1:1000 dilution), AKT rabbit polyclonal (1:1000 dilution), TAK1 rabbit polyclonal (1:1000 dilution), PARP rabbit polyclonal (1:1000 dilution), Beclin-1 rabbit polyclonal (1:1000 dilution), caspase-3 rabbit polyclonal (1:1000) which detects the pro-caspase form, and ATG5 rabbit polyclonal (1:1000 dilution), LC3-II rabbit polyclonal (1:1000 dilution) antibodies were obtained from Cell Signaling Technology (Danvers, Mass.). The HSP27 mouse monoclonal (1:1000 dilution) antibody was obtained from Stressgen (Ann Arbor, Mich.). Blots were developed using chemiluminescence substrates (Amersham Piscataway, N.J. or BioRad, Hercules, Calif.). Monoclonal PAI-1 antibody was obtained from BD Pharmingen. PSMAD2, total SMAD2/3, p-ERK, p-AKT, and total AKT antibodies were obtained from Cell Signaling Technology. A monoclonal antibody against Arkadia was obtained from Abnova (Taiwan).
(§2) Densitometric analysis was performed using the HP Scanjet 5590 and the Image J program (Image Processing and Analysis in Java, NIH Image Software). Bands were selected and the intensity values were normalized to those for GAPDH. The values are presented as fold-changes relative to control siRNA treated cells.
The clinical inhibitors As2O3, geldanamycin (17-AAG) (dissolved in dimethylsulfoxide [DMSO]), and MG132 (dissolved in DMSO) were obtained from Sigma-Aldrich (St. Louis, Mo.), Fisher Scientific (Pittsburgh, Pa.), and Alexis Biochemicals (Farmingdale, N.Y.), respectively. N-acetyl-L-cysteine (NAC; dissolved in media) and Bortezomib (PS-341; dissolved in DMSO) were obtained from Fisher Scientific. 3-Methyladenine (3-MA; dissolved in media) was obtained from MP Biomedicals (Solon, Ohio). Tiron (4,5-Dihydroxy-1,3-benzenedisulfonic acid, dissolved in media) was obtained from Fisher Scientific. zVAD-fmk (dissolved in DMSO) and bafilomycin A (dissolved in DMSO) was obtained from Axxora LLC (San Diego, Calif.). Bovine catalase was obtained from Sigma-Aldrich. HBED and Mn TBAP was obtained from ENZO Life Sciences (Farmingdale, N.Y.). Ovarian cells were plated in 6-well plates at 250,000 cells per well and grown in complete medium. […] For control cells, DMSO (a final concentration of <0.5%) was added to compare appropriately to drugs dissolved in DMSO. After the appropriate incubation time (6 or 18 hours), cell lysates were collected, protein quantified, and SDS-PAGE/western analysis was performed. In addition, for selected studies, RNA was isolated, quantified, and used for qPCR analysis.

Assay [1] deals with LC3-I/LC3-II, autophagosomes. Nature of the assay: Autophagy: LC3 western, EGFP-LC3 fluorescence, TEM of autophagosomes. How it is done:
as §1
HEY cells were seeded onto glass coverslips and allowed to adhere following overnight incubation. The cells were then transiently transfected with EGFP-LC3 (Addgene, Cambridge, Mass.) and allowed to recover for 24 hours. The cells were treated at the appropriate concentrations of As2O3 in the absence or presence of 3-MA (5 and 10 mM), for 18 hours. The cells were then fixed in 4% paraformaldehyde in PBS for 30 minutes at room temperature, washed twice in PBS, and blocked for 1 hour at room temperature in PBS containing 5% goat serum and 0.1% Triton X-100. The cells were counterstained with Hoescht nuclear stain, washed 3 times for 5 minutes in PBS, anti-Fade containing DAPI nuclear stain was then applied, and coverslips mounted onto glass slides and viewed under a Zeiss inverted fluorescence microscope (Moffitt Cancer Center Microscopy Core).
Autophagy induction was analyzed using electron microscopy. […] Cells were then fixed in 2.5% glutaraldehyde in 0.1M phosphate buffer overnight at 4° C. Following rinsing in buffer, cells were scraped from the culture flasks, washed, and then post-fixed in 1% osmium tetroxide in buffer. After dehydration in a graded series of acetone, the cells were embedded in Embed 812 epoxy resin. Thin sections (70 nm) were cut on an Ultramicrotome. The sections on the grids were stained with uranyl acetate and lead citrate. The sections were examined on a Transmission Electron Microscope (Morgagni 268D).

The test system of another assay is cleaved PARP. Kind of assay: Western analysis of PARP cleavage (early apoptosis marker). As to the method: as §1, §2
The clinical inhibitors As2O3, geldanamycin (17-AAG) (dissolved in dimethylsulfoxide [DMSO]), and MG132 (dissolved in DMSO) were obtained from Sigma-Aldrich (St. Louis, Mo.), Fisher Scientific (Pittsburgh, Pa.), and Alexis Biochemicals (Farmingdale, N.Y.), respectively. N-acetyl-L-cysteine (NAC; dissolved in media) and Bortezomib (PS-341; dissolved in DMSO) were obtained from Fisher Scientific. 3-Methyladenine (3-MA; dissolved in media) was obtained from MP Biomedicals (Solon, Ohio). Tiron (4,5-Dihydroxy-1,3-benzenedisulfonic acid, dissolved in media) was obtained from Fisher Scientific. zVAD-fmk (dissolved in DMSO) and bafilomycin A (dissolved in DMSO) was obtained from Axxora LLC (San Diego, Calif.). Bovine catalase was obtained from Sigma-Aldrich. HBED and Mn TBAP was obtained from ENZO Life Sciences (Farmingdale, N.Y.). Ovarian cells were plated in 6-well plates at 250,000 cells per well and grown in complete medium. The following day, the cells were treated with 5 μM MG132, As2O3 (between 2-50 μM), 17-AAG (between 2-50 μM), NAC (Fisher Scientific, between 25 μM to 1 mM), Tiron (between 25 μM to 1 mM), 3-MA (0.1 mM to 10 mM), or zVAD-fmk (25 μM to 100 μM). For control cells, DMSO (a final concentration of <0.5%) was added to compare appropriately to drugs dissolved in DMSO. After the appropriate incubation time (6 or 18 hours), cell lysates were collected, protein quantified, and SDS-PAGE/western analysis was performed. In addition, for selected studies, RNA was isolated, quantified, and used for qPCR analysis.

Regarding Arsenic trioxide [As2O3], in the assay with SnoN (HEY and OVCA429, 18 hours, increasing doses), the SnoN/SkiL protein levels entry is on record as “significantly increased”. The “concentration at which induction of SnoN occurred” value is over 25 µM with SnoN (HEY and SKOV3 cells); 10 µM with SnoN (T80 cells). Also, in the assay on SnoN (HEY, time course), the “time of As2O3 treatment at which induction of SnoN was seen” value worked out at 9 h. The “levels of LC3-I and LC3-II” value in assay [1] (As2O3, 18 hours, correlated with SnoN expression) is on record as “increased”. Also, the EGFP-LC3 staining pattern entry in assay [1] (HEY, As2O3 between 5 μM to 25 μM, data not shown) is “punctuate staining pattern around the nucleus”. Also, the “autophagosomes by TEM” value in assay [1] (HEY, data not shown) was “numerous double membrane autophagosomes”. In addition, the “dose at which PARP fragmentation dramatically increased” value was determined as 50 µM in the assay with cleaved PARP (HEY and SKOV3); 25 µM in the assay with cleaved PARP (T80).
